Measured values from PMC8533149 (Biomolecules, 2021).
Where two headings read alike, the source gives them in different places.

Columns and labels:
[1] = test system: human telomeric sequence Telo G4; experiment: FRET melting assay, Telo; format: binding; conditions: Table S2, primary screening lead compounds, 50:1
Procedure: (§1) To evaluate stabilizing properties of the ligands in a complex with oligodeoxyribonucleotides (ODNs) melting with fluorescence registration was used. ODN (0.5 μM) (Table 1), labeled with 6-carboxyfluorescein (FAM) and 6-carboxytetramethylrhodamine (TAMRA) at the 5′- and 3′-end, respectively, were folded in lithium cacodylate buffer (10 mM, pH 7.4) with 100 mM KCl by heating at 95 °C for 5 min and gradually cooling to r.t. GFP chromophore analogs (5 mM solution in DMSO) were diluted with the same buffer to the final concentration of 25 μM and mixed with an equal volume of 0.5 μM ODN solution resulting in a molar ratio of 50:1 (total volume was 50 μL). For the titration experiments molar ratios of 20:1 and 2:1 were used. Samples were analyzed using DTprime qPCR system (DNA-Technology LLC, Moscow, Russia). Fluorescence was registered by detection of FAM emission at 520 nm upon excitation at 495 nm in the temperature range of 30–95 °C with 1 °C/min gradient. Tm was determined using the instrument software and ΔTm was calculated relative to ODN Tm in a buffer solution containing 0.25% (v/v) DMSO. The primary and secondary screening were carried out in singlicate and triplicate, respectively.
(§2) Initially we screened an in-house library of 440 synthetic GFP chromophore analogues for interaction with HIV-1 LTR-III sequence, which modulates HIV-1 promoter activity, using high-throughput screening (HTS) FRET melting assay (Table S1). […] We selected 11 compounds (Figure 2A), displaying stabilization in the range of 2.4–7.8 °C, and evaluated their ability to stabilize other G4-forming sequences, including human telomeric sequence Telo (one of the most common G4 structures in the human genome, having two conformations, Hybrid-1 and Hybrid-2 [36]) and model G4 […] (the G-rich Pu39 region of the P1 promoter of the oncogene BCL-2, an apoptosis regulator [37] with polymorphic conformational structure), as well as double stranded oligonucleotide (duplex) control sequence (Figure 2B, Table S2).

[2] = test system: Telo (DNA, G4) AGGGTTAGGGTTAGGGTTAGGG; experiment: FRET melting; conditions: 100 mM KCl; 10 mM lithium cacodylate pH 7.4, 0.25% DMSO; 12.5 μM compound, 0.25 μM DNA (50:1)
Cytotoxicity test = format: cell-based; conditions: human, MT4 cells (human T cell leukemia), Figure 7
MT4 cells = experiment: Cytotoxicity test; format: cell-based; conditions: Table S12, nine days
[3] = test system: HIV-1 LTR-III G-quadruplex (FAM/TAMRA-labeled LTR-III); experiment: FRET melting assay, LTR-III G4; format: binding
In short: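 Melting is followed by FAM fluorescence (ex 495/em 520 nm) while heating at 1 °C/min from 30 to 95 °C. Labelled ODN at 0.5 μM, pre-annealed in 10 mM Li cacodylate, 100 mM KCl, pH 7.4, mixed with ligand at 50:1 (25 μM), or 20:1 and 2:1 for titration. ΔTm is relative to the 0.25% DMSO buffer control.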

LTR-III G4 = experiment: NMR titration of LTR-III; format: binding, HIV-1
Procedure: All NMR spectra were acquired on a Bruker Avance III 800 MHz spectrometer equipped with a cryoprobe. Titration of 50 μM LTR-III samples (70 mM KCl, 20 mM potassium phosphate buffer, pH 7.0) with 2 mM ZS260.1 and N979 ligands dissolved in DMSO was performed. 1D ^1H NMR spectra were used to track the changes during titration. ^1H-^13C HSQC and HMBC at 35 °C were used to transfer the assignment of H6/C6 and H8/C8 signals from previously obtained assignment. To identify the LTR-III residues that are most influenced by addition of ZS260.1 ligand, the intensities of cross-peaks in the ^1H-^13C HSQC spectra measured with and without added ligand were compared. The H6/C6 and H8/C8 cross-peak intensities were measured at molar ratio of LTR-III to ZS260.1 of 5:1 (35 °C, 0.5 mM LTR-III G4).
The ligand binding processes are probably in intermediate to fast regime on the NMR timescale. Therefore, the resonances of residues that are close to the ligand binding site (s) become broadened and attenuated (intermediate exchange regime).
To determine affinity of the compound ZS260.1 to LTR-III G4 we analyzed changes in H8 chemical shift of G8 residue in 1D ^1H NMR spectra. […] The titration data were successfully approximated by simple chemical reaction A + B = AB, that implies one to one stoichiometry of binding that is consistent with literature data (Suppl. S8). The dissociation constant for the LTR-III/ZS260.1 complex (Kd) was on the order of 3 μM.

[4] = test system: dsDNA (DNA, duplex) CTATAGCGCGCTATAG; experiment: FRET melting; conditions: 100 mM KCl; 10 mM lithium cacodylate pH 7.4, 0.25% DMSO; 12.5 μM compound, 0.25 μM DNA (50:1)
[5] = test system: dsDNA (double stranded control sequence); experiment: FRET melting assay, duplex control; format: binding; conditions: Table S2, primary screening lead compounds, 50:1
Procedure: as §1, §2

[6] = test system: HIV-1 strain NL4-3 in MT4 cells; experiment: Cytopathic effect inhibition test; format: cell-based; conditions: HIV-1 NL4-3, MT4 cells
Procedure: Human T cell leukemia (MT4) cell line was maintained in RPMI-1640 (“Chumakov FSC R&D IBP RAS”, Moscow, Russia) with 10% of fetal bovine serum (FBS, Invitrogen, Waltham, MA, USA), L-glutamine and gentamicin. Green monkey kidney (Vero, Beach, FL, USA) cell line was maintained in 2 × Eagle MEM (“Chumakov FSC R&D IBP RAS”, Russia) with 5% FBS with L-glutamine, penicillin and streptomycin. Cell cultures were incubated in the present of 5% CO2 at 37 °C. HIV-1 strain NL4-3 was obtained via cell transfection with pNL4-3 3 (ARP2006, NIBSC, Potters Bar, UK).
Eight two-fold dilutions of stock solutions of the compounds in two replicates were prepared in RPMI-1640 (“Chumakov FSC R&D IBP RAS”, Russia). Compound dilutions were mixed with equal volumes of the virus suspension containing 100 CCID50 (50% tissue culture infectious dose). Control cells were treated with the same sequential concentrations of DMSO as in compound dilutions. Then, the MT4 cell suspension (approx. 2 × 10^4 cells per well) in RPMI-1640 containing 10% FBS (Invitrogen, South America) was added to experimental mixtures. A final concentration series started from 25 μM. Each experiment contained virus dose titration in the inoculate to assure the acceptable dose-range. After a nine-day incubation (5% CO2, at 37 °C), cytopathic effect (CPE) was visually accessed via microscope. EC50 values were calculated according to the Karber method. All experimental procedures were performed in two replicates and were repeated two to four times. Mean and SD were calculated with OriginPro 8 (OriginLab, St. Louis, MO, USA).

[7] = test system: Pu39 G4 (G-rich region of the P1 promoter of BCL-2); experiment: FRET melting assay, Pu39; format: binding, human; conditions: Table S2, primary screening lead compounds, 50:1
Procedure: as §1, §2

COc1cc(/C=C2N=C(/C=C/c3cc(Br)c(O)c(Br)c3)N(C)C\2=O)cc(OC)c1O [ZS 260.1]
ΔTm Telo [1]: 0.7±0.2 °C
ΔTm [2]: 0.7±0.2 °C
CC50 at 9 days (Cytotoxicity test): 4.1 ± 0.6 µM
СС50 (MT4) (MT4 cells): 4.1 ± 0.6 µM
LTR III stabilization ([3]; Figure 7, stabilization group): > 3 °C
LTR-III ΔTm ([3]; Table S1 primary screening, ligand:ODN 50:1, singlicate): 7.8 °C
LTR-III (average) ([3]; Table S12, average stabilization): 8,35 °C
interaction with LTR-III by NMR titration (selective signal attenuation) (LTR-III G4; 50 μM LTR-III, 1D 1H NMR): interact with the LTR-III molecule
Kd (LTR-III G4; H8 chemical shift of G8 in 1D 1H NMR, 1:1 binding model, read-out: dissociation constant for the LTR-III/ZS260.1 complex (Kd)): ~3 µM
ΔTm [4]: 0.1±0.09 °C
ΔTm Duplex [5]: 0.1±0.09 °C
EC50 ([6]; Human immunodeficiency virus 1, NL43, 216 h, Table S12, CPE, nine-day incubation, read-out: EC50): 3.78 ± 0.91 µM
EC50 ([6]; Human immunodeficiency virus 1, NL43, Figure 7, read-out: Antiviral activity EC50 (HIV)): 3.8 ± 0.9 µM
EC50 ([6]; Table S12, CPE, nine-day incubation): micromolar range
ΔTm Pu39 [7]: 0.9±0.6 °C
